Laboratory results as given in paper PMC5653818, “A Brain Penetrant Mutant IDH1 Inhibitor Provides In Vivo Survival Benefit” (Scientific Reports, 2017).
pIC50: −log10 of the molar value.

Target: IDH1 R132H (mutant isocitrate dehydrogenase 1) (Homo sapiens, UniProt O75874, R132H)
Assay: coupled enzymatic assay (GAPDH/PGK/luciferase luminescence) with R132H IDH1 enzyme
Type: biochemical

Chain of IDH1 R132H (mutant isocitrate dehydrogenase 1) (O75874 2-414 R132H): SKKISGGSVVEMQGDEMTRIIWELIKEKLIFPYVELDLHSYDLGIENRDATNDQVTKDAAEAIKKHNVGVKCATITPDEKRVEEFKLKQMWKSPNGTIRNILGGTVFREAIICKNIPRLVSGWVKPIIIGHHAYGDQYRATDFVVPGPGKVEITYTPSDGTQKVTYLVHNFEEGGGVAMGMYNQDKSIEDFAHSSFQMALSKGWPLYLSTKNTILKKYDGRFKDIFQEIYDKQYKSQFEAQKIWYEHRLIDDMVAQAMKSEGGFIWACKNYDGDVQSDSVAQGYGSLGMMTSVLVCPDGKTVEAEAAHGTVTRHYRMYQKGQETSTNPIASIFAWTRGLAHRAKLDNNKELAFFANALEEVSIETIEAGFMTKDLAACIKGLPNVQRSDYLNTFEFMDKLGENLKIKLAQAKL

pIC50: 8.30
Compound: O=C(C1CCc2ccccc2CC1)N1Cc2cccnc2Nc2ccc(N3CCOCC3)cc21 [MRK-A]
